Reference: patent publication US6458806B1, “Aryl alkenamides derivatives as MCP-1 antagonists” (Millennium Pharmaceuticals, Inc., priority 1996, dated 2002)
Where a name gives a salt, the structure may show the parent alone.

Test system: CD3-Blasts
Test: CD3-Blast chemotaxis assay (transendothelial migration to MCP-1)
Assay type: cell-based
Conditions: ECV-304; migration of human CD3-Blasts to about 10 nM MCP-1 across ECV304 endothelial cells, approximately 1 hour
Text: CD3—Blast Chemotaxis Assay
Recombinant human MCP-1 was obtained from Peprotech (Rockey Hill, N.J.). T lymphocyte blast cells (CD3-Blasts) were generated by standard protocols (Coligan, J. E., A. M. Kruisbeek, D. H. Macgulies, E. M. Shevach, and W. Strober, editors. 1992. Current Protocols in Immunology. John Wiley and Sons, New York, 7.1.2, 7.10.1-7.10.10). Briefly, human peripheral blood mononuclear cells (PBMC) were isoltated from heparinized venous blood by Percoll density gradient centrifugation (d=1.088) at room temperature. RBCs were removed by hypotonic lysis or Dextran sedimentation. […] CD3-Blast chemotaxis was assessed no sooner than 3 to 4 days after transfer to the IL-2 containing medium using a modification of a transendothelial migration assay (Carr. M. W., S. J. Roth, B. Luther, S. S. Rose, and T. A. Springer. 1994. Monocyte chemoattractant protein 1 acts as a T-lymphocyte chemoattractant. Proc. Natl. Acad. Sci. USA 91:3652-6). […] Background migration was determined by counting cells that migrated in the absence of MCP-1 in the lower chamber. […] The percent inhibition by compounds of directed migration was determined by the following formula: [formula] […]

IC50: 23 µM
Compound: O=C(/C=C/C=C/c1ccc(Cl)c(Cl)c1)NCCCN1CCCCC1 [Example 1, 5-(3,4-Dichloro-phenyl)-penta-2,4-dienoic Acid (3-piperidin-1-yl-propyl)-amide-HCl]
